Measurements taken from ChEMBL document CHEMBL3991601, “The target landscape of clinical kinase drugs” (Science, 2017).
The source made the active and inactive calls. Cut-off read from the data, not from the text of the source, for most assays here: actives have a measured Kd and inactives only a lower limit.

Columns and labels:
[1] = biological target: Cyclin-dependent kinase 17 (Homo sapiens, UniProt Q00537)
[2] = biological target: Ribosomal protein S6 kinase alpha-3 (Homo sapiens, UniProt P51812)
[3] = biological target: Serine/threonine-protein kinase/endoribonuclease IRE1 (Homo sapiens, UniProt O75460)
[4] = biological target: Serine/threonine-protein kinase 10 (Homo sapiens, UniProt O94804)
Serine/threonine-protein kinase 10, sequence (O94804 whole entry): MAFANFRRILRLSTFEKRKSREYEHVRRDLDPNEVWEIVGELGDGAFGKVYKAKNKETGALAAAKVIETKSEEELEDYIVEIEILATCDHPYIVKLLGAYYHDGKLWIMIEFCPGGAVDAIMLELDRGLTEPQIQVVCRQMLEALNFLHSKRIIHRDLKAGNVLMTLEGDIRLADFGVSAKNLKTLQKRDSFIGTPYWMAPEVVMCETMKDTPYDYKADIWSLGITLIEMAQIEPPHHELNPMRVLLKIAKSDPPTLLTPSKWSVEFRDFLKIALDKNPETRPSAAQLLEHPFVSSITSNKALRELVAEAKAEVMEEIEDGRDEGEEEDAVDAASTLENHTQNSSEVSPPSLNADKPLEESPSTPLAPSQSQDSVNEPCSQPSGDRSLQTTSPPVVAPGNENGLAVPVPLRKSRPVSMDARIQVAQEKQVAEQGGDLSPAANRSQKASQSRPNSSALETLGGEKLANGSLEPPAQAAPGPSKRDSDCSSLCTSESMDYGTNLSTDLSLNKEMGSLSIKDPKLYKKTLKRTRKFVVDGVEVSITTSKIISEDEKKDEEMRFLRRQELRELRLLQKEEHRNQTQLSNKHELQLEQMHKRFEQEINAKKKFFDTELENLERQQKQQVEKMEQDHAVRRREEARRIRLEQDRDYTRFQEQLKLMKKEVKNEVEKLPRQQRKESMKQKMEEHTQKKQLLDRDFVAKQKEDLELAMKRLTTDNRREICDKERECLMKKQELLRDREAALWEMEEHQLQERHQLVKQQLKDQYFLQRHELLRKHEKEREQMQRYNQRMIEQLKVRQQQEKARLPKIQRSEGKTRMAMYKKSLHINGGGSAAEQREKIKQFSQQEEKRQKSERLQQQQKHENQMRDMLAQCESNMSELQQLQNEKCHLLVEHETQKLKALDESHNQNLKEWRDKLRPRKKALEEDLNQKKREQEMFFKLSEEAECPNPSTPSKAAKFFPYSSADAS

[5] = biological target: Chromodomain-helicase-DNA-binding protein 4 (Homo sapiens, UniProt Q14839)
[6] = biological target: Ribosomal protein S6 kinase alpha-5 (Homo sapiens, UniProt O75582)
Ribosomal protein S6 kinase alpha-5, sequence (O75582 whole entry): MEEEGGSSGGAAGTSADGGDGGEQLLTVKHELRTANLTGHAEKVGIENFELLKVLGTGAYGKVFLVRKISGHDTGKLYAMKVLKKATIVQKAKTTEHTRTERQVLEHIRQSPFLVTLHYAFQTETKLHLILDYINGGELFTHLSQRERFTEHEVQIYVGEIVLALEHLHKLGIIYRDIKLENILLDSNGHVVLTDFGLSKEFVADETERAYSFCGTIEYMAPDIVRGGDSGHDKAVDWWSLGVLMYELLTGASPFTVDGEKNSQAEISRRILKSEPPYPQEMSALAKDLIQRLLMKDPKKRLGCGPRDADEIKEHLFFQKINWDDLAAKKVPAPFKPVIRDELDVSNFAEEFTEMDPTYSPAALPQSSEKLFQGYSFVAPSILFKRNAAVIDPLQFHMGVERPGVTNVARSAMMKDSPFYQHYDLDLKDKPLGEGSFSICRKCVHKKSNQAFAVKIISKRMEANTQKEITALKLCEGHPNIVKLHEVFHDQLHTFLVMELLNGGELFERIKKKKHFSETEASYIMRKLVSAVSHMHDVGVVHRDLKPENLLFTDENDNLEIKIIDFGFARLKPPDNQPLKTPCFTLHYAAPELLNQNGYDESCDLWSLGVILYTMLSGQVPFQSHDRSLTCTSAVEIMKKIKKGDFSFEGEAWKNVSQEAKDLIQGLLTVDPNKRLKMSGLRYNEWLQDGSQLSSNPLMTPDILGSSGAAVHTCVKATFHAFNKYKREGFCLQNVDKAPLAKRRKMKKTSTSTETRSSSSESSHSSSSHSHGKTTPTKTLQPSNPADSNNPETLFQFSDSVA

DNA topoisomerase 2-beta = DNA topoisomerase 2-beta (Homo sapiens, UniProt Q02880)
Septin-9 = biological target: T1, Septin-9 (Homo sapiens, UniProt Q9UHD8)
T1 sequence (Q9UHD8 whole entry): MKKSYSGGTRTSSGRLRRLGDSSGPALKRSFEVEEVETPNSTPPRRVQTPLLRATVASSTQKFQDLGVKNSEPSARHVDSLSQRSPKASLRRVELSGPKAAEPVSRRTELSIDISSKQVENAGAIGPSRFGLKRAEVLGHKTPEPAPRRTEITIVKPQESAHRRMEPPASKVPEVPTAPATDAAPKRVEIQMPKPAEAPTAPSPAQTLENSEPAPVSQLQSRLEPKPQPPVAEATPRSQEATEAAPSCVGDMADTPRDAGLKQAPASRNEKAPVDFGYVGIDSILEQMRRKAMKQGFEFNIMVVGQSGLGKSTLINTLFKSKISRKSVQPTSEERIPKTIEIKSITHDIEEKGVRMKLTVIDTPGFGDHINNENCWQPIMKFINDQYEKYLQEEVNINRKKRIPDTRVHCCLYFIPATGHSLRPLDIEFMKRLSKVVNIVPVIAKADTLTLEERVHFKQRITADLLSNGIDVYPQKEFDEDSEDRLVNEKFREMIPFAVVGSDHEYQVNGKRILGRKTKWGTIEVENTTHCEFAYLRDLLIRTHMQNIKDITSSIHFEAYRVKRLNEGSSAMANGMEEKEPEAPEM

[7] = biological target: Dual specificity mitogen-activated protein kinase kinase 2 (Homo sapiens, UniProt P36507)
Dual specificity mitogen-activated protein kinase kinase 2, sequence (P36507 whole entry): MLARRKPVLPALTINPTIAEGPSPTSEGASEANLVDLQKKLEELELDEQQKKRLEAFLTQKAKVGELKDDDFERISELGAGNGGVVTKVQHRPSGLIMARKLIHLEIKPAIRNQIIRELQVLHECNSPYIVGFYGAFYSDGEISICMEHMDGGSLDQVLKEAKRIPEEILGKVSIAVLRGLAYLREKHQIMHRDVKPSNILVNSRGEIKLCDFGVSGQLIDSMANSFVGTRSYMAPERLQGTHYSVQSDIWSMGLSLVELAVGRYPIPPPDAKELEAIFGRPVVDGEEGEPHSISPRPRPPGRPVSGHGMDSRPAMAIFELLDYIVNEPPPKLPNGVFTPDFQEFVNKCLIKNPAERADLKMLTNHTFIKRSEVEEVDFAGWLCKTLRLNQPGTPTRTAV

Ephrin type-A receptor 4 = Ephrin type-A receptor 4 (Homo sapiens, UniProt P54764)
[8] = biological target: Mitogen-activated protein kinase 10 (Homo sapiens, UniProt P53779)
Mitogen-activated protein kinase 10, sequence (P53779 whole entry): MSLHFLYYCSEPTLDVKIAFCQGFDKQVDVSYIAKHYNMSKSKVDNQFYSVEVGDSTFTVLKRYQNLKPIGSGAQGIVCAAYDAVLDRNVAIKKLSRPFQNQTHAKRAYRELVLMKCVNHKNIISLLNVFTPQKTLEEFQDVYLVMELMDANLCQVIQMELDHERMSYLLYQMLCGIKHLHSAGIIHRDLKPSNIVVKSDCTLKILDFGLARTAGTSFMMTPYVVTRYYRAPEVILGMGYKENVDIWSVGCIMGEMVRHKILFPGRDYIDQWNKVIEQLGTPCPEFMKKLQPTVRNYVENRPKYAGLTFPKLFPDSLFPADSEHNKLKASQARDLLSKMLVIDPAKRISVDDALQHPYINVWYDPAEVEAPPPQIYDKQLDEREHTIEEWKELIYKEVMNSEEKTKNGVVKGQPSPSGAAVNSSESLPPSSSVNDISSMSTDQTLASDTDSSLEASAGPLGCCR

[9] = biological target: T2, ATP-dependent RNA helicase DHX30 (Homo sapiens, UniProt Q7L2E3)
T2 sequence (Q7L2E3 whole entry): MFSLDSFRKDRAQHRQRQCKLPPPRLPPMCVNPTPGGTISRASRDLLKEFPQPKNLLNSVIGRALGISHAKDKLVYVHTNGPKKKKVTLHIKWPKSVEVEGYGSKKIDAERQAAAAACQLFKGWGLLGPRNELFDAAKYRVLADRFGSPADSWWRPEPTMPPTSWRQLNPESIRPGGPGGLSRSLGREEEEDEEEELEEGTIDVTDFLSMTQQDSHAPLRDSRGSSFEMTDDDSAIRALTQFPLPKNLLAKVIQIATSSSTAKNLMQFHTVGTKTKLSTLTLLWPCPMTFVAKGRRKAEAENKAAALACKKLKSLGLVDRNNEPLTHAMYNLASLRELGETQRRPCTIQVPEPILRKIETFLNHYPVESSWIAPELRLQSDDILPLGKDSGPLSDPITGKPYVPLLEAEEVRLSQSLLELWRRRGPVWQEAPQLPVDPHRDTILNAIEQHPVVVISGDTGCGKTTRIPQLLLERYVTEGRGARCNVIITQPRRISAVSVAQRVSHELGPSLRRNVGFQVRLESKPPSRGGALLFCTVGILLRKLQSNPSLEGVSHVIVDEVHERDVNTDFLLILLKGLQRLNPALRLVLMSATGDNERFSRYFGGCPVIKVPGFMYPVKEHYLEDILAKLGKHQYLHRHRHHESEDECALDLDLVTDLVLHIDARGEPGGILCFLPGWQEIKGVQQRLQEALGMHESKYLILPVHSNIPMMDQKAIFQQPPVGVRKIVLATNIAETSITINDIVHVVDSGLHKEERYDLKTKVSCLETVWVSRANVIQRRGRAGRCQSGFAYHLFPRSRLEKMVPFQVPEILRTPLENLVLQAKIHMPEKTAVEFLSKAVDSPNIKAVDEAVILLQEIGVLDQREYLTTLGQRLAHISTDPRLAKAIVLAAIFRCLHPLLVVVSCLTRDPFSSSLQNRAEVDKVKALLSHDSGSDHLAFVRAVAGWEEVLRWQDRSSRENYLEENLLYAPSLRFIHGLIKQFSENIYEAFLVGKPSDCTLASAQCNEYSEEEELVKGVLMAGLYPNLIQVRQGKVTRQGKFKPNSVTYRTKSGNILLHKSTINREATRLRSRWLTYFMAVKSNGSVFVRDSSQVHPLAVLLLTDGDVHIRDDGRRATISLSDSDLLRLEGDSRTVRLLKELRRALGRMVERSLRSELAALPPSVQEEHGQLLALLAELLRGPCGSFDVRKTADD

[10] = biological target: Epidermal growth factor receptor (Homo sapiens, UniProt P00533)
Epidermal growth factor receptor, sequence (P00533 whole entry): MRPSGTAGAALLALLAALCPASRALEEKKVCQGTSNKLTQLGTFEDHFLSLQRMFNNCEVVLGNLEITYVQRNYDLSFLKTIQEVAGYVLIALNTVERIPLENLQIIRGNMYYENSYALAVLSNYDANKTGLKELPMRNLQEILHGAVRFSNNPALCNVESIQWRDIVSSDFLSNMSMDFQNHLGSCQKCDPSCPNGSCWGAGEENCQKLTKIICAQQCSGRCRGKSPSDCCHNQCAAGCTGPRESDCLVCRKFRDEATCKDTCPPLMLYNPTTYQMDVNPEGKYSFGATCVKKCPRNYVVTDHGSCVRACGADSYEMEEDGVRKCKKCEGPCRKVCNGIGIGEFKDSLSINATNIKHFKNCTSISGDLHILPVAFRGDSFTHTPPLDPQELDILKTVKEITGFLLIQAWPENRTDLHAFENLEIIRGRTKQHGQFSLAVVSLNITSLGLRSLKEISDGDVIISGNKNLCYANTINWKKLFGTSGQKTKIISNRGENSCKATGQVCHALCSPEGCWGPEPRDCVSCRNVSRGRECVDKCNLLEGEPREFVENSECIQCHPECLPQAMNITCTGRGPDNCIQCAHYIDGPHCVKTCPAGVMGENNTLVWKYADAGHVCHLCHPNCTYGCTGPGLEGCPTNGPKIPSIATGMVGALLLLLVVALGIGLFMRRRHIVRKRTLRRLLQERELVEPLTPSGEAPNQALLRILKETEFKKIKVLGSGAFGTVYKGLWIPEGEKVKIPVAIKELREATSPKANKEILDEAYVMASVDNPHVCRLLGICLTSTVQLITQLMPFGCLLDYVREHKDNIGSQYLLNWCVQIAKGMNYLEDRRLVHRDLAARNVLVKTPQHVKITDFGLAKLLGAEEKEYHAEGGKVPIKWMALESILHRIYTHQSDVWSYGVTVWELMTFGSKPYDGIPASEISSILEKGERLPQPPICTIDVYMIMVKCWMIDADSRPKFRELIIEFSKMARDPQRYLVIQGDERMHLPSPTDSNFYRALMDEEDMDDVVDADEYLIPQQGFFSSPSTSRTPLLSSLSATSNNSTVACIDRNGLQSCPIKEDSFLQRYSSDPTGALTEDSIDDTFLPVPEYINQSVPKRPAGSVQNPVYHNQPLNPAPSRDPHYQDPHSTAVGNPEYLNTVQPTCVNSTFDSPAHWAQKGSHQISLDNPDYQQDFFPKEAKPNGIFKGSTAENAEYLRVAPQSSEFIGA

[11] = biological target: NADH dehydrogenase [ubiquinone] 1 alpha subcomplex subunit 13 (Homo sapiens, UniProt Q9P0J0)
NADH dehydrogenase [ubiquinone] 1 alpha subcomplex subunit 13, sequence (Q9P0J0 whole entry, one chain of several): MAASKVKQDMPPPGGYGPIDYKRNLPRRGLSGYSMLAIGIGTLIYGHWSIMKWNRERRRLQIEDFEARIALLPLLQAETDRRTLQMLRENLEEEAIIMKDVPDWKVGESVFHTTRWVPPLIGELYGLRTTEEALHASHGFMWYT
Note: in the data inactive means no Kd found up to 30 µM.

Cyclin-dependent kinase 17, sequence (Q00537 whole entry): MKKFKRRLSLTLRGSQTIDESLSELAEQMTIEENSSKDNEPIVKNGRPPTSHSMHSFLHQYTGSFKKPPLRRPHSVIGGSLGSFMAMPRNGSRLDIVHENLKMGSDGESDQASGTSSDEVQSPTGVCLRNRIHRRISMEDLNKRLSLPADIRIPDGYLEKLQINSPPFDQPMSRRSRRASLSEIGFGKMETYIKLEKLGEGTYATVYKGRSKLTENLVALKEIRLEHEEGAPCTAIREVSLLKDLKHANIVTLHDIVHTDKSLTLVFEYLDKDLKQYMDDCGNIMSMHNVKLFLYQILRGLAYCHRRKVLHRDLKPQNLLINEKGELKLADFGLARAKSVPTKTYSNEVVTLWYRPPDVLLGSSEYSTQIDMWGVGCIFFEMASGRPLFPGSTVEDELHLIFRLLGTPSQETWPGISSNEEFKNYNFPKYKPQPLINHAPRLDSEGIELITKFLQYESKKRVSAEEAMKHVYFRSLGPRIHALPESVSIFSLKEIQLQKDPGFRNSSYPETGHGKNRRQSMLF

Kd [1] | Kd [2] | Kd [3] | Kd [4] | Kd [5] | Kd [6] | Kd (DNA topoisomerase 2-beta) | Kd (Septin-9) | Kd [7] | Kd (Ephrin type-A receptor 4) | Kd [8] | Kd [9] | Kd [10] | Kd [11] | SMILES
> 30 µM (inactive) | > 30 µM (inactive) | > 30 µM (inactive) | > 30 µM (inactive) | > 30 µM (inactive) | > 30 µM (inactive) | > 30 µM (inactive) | > 30 µM (inactive) | > 30 µM (inactive) | > 30 µM (inactive) | > 30 µM (inactive) | > 30 µM (inactive) | > 30 µM (inactive) | > 30 µM (inactive) | O=C(Cc1ccc(-c2ccc(OCCN3CCOCC3)cc2)cn1)NCc1ccccc1 [TIRBANIBULIN]
> 30 µM (inactive) | > 30 µM (inactive) | > 30 µM (inactive) | > 30 µM (inactive) | > 30 µM (inactive) | > 30 µM (inactive) | > 30 µM (inactive) | > 30 µM (inactive) | > 30 µM (inactive) | > 30 µM (inactive) | > 30 µM (inactive) | > 30 µM (inactive) | > 30 µM (inactive) | > 30 µM (inactive) | C[C@@H](NC(=O)c1ncnc(N)c1Cl)c1ncc(C(=O)Nc2cc(C(F)(F)F)c(Cl)cn2)s1 [TOVORAFENIB]
0.005 µM | > 30 µM (inactive) | > 30 µM (inactive) | 0.379 µM (active) | > 30 µM (inactive) | > 30 µM (inactive) | > 30 µM (inactive) | > 30 µM (inactive) | 4.21 µM | 0.167 µM (active) | > 30 µM (inactive) | > 30 µM (inactive) | > 30 µM (inactive) | > 30 µM (inactive) | CC(C)c1cc(CNc2nc(Nc3cc(C4CC4)[nH]n3)cc(N3CCN(C)CC3)n2)on1 [XL-228]
> 30 µM (inactive) | > 30 µM (inactive) | > 30 µM (inactive) | > 30 µM (inactive) | > 30 µM (inactive) | > 30 µM (inactive) | > 30 µM (inactive) | > 30 µM (inactive) | > 30 µM (inactive) | > 30 µM (inactive) | > 30 µM (inactive) | > 30 µM (inactive) | > 30 µM (inactive) | > 30 µM (inactive) | C[C@@H](N)c1ccc(C(=O)Nc2ccnc3[nH]ccc23)cc1 [Y-39983]
> 30 µM (inactive) | > 30 µM (inactive) | > 30 µM (inactive) | 9.95 µM (active) | > 30 µM (inactive) | > 30 µM (inactive) | > 30 µM (inactive) | > 30 µM (inactive) | > 30 µM (inactive) | > 30 µM (inactive) | > 30 µM (inactive) | > 30 µM (inactive) | 79.9 µM | > 30 µM (inactive) | CN1C/C=C/CCOc2cccc(c2)-c2ccnc(n2)Nc2cccc(c2)C1 [ZOTIRACICLIB]

SMILES | Kd [1] | Kd [2] | Kd [3] | Kd [4] | Kd [5] | Kd [6] | Kd (DNA topoisomerase 2-beta) | Kd (Septin-9) | Kd [7] | Kd (Ephrin type-A receptor 4) | Kd [8] | Kd [9] | Kd [10] | Kd [11]
Cc1cc(Nc2ncnc3ccc(NC4=NC(C)(C)CO4)cc23)ccc1Oc1ccn2ncnc2c1 [TUCATINIB] | > 30 µM (inactive) | > 30 µM (inactive) | > 30 µM (inactive) | > 30 µM (inactive) | > 30 µM (inactive) | > 30 µM (inactive) | > 30 µM (inactive) | > 30 µM (inactive) | > 30 µM (inactive) | > 30 µM (inactive) | > 30 µM (inactive) | > 30 µM (inactive) | 2.53 µM (active) | > 30 µM (inactive)
